Measurements: publication PMC6857134, “Antimicrobial functional divergence of the cecropin antibacterial peptide gene family in Musca domestica” (Parasites & Vectors, 2019)
In brackets after ≈: the same amount, converted by molar mass. Residues, ends and D or L forms follow the SMILES beside them. No end group written: not given here.

Key:
[1] = tested on: extensive-drug-resistant A. baumannii (4367992); assay: Leakage of 260 nm absorbing material; type: cell-based, Acinetobacter baumannii; details: 0.5× MIC and 2× MIC, 0–8 h, 37 °C, 1 × 10^6 CFU/ml; three independent experiments
Method: The reference method was slightly modified, taking the logarithmic growth phase of extensive-drug-resistant A. baumannii (4367992) as detected bacteria. Five millilitres of bacterial suspension (1 × 10^6 CFU/ml) was treated with different concentrations of antimicrobial peptides (0.5× MIC, 2× MIC). After being placed at 37 °C and 150× rpm, aliquots (0.5 ml) of the treated bacterial suspension were removed at different intervals (0, 0.5, 1, 2, 4, 6 and 8 h). The aliquots were centrifuged (1000× rpm, 5 min) and the absorbance of supernatant was measured at 260 nm, using PBS as the control.

A. baumannii (4367992) = assay: Time-killing assay (growth curve, absorbance at 600 nm); type: cell-based, Acinetobacter baumannii
Method: The effect of peptides on the growth of an A. baumannii (4367992) isolate was examined as follows: the strain was cultured in nutrient agar for 18–20 h and adjusted to 0.5 McFarland units with MHB medium, then diluted 1:20 in MHB medium. Each peptide was added to one culture tube at a final concentration of 1× MIC or 2× MIC. […] The cultures were incubated for 24 h at 37 °C with shaking at 200× rpm, and the absorbance at 600 nm of 1 ml aliquots was recorded at 0.5–2 h intervals.

A. baumannii 4367992 = assay: MIC by broth microdilution; type: cell-based, Acinetobacter baumannii; details: 37 °C, 24 h; for MIC / inhibitory concentration against A. baumannii: strain not given, broth microdilution
Method: (§1) Evaluation of the MIC of synthetic peptides was performed using broth microdilution techniques according to the guidelines of the Clinical and Laboratory Standards Association (CLSI). The antimicrobial spectrum and biological activity of the above chemically synthesized peptides were tested against six Gram-positive bacteria, five Gram-negative bacteria and one fungus. Overnight cultures of the 11 bacteria were grown in MHB at 37 °C and C. albicans was grown in Sabouraud dextrose broth (SDB) medium (Sangon, Shanghai, China) and cultured at 37 °C to mid-log phase and diluted to 1.5 × 10^6 CFU/ml. In a polypropylene 96-well round-bottom plate, 50 μl of bacteria was mixed with 50 μl of designed synthetic peptide dissolved in sterile distilled water (final concentration of 0–64 μM). Sterile distilled water was used as a negative control and polymyxin B dissolved in sterile distilled water as a positive control.

[2] = tested on: tested microorganisms (Gram-positive bacteria, Gram-negative bacteria, one fungus); assay: MIC by broth microdilution, summary over the panel of tested microorganisms; type: cell-based; details: at concentrations up to 32 μM
Method: as §1

GWLKKIGKKIERVGQNTRDATIQAIGVAQQAANVAATLKGK [Cec4]
leakage of 260 nm absorbing material (maximum absorbance at 260 nm) [1]: dose-dependent increase | time-kill kinetics, killing pattern (A. baumannii (4367992); A. baumannii in the logarithmic growth phase): rapid and concentration-dependent killing pattern | MIC / inhibitory concentration against A. baumannii (A. baumannii 4367992): 0.5 µM

GWLKKVGKKIERVGQHTRDATIQGLGVAQQAANVVATVKGK [Cec3]
MIC / inhibitory concentration against A. baumannii (A. baumannii 4367992): 32 µM

CC[C@H](C)CCCCC(=O)N[C@@H](CCN)C(=O)N[C@H](C(=O)N[C@@H](CCN)C(=O)N[C@H]1CCNC(=O)[C@H]([C@@H](C)O)NC(=O)[C@H](CCN)NC(=O)[C@H](CCN)NC(=O)[C@H](CC(C)C)NC(=O)[C@@H](Cc2ccccc2)NC(=O)[C@H](CCN)NC1=O)[C@@H](C)O [polymyxin B, reference compound] (HELM PEPTIDE1{[CC[C@H](C)CCCCC(=O)[*:2]].[Dab].T.[Dab].[Dab].[Dab].[dF].L.[Dab].[Dab].T}$PEPTIDE1,PEPTIDE1,5:R3-11:R2$$$V2.0; N-terminus assumed; bridges inferred)
duration of antibacterial effect on A. baumannii (A. baumannii (4367992); Cec4 at 1× MIC and 2× MIC, polymyxin B at 1× MIC (1.05 μM), MHB, 37 °C, 200 rpm, absorbance 600 nm over 24 h, three independent experiments): ≤ 12 h | MIC (A. baumannii 4367992; A. baumannii 4367992 (extensive-drug-resistant isolate), broth microdilution (CLSI), MHB, visual growth): 1.05 µM (≈ 1.26 µg/mL)

GWLKDFGRRIERVGQHTRDATIQAIGVAQQATDVAATLKGK [Cec9]
inhibitory effect on the other experimental strains (other than E. coli) [2]: no inhibitory effect
